Drawing on US12161754B2, “Abuse deterrent morphine sulfate dosage forms” (Purdue Pharma L.P., priority 2017, dated 2024), this text covers API volatilized for one compound.

The data set in a line: Simulated smoking tests (Example 14). The settings on record: API alkalinized with excess NaOH, heated with a Sterno burner for 15 minutes.

Structures can show the parent of a compound that is named as a salt.

As to `CN1CC[C@]23c4c5ccc(O)c4O[C@H]2[C@@H](O)C=C[C@H]3[C@H]1C5` [Morphine sulfate pentahydrate, morphine hemi(sulfate pentahydrate)], the API volatilized result is given as “about 21%”.
